What all share (assay): relative viability (nuclei count vs DMSO), 5 days (fraction); higher = more cells survive
Compound in one assay: CC1(C)CNc2cc(NC(=O)c3cccnc3NCc3ccncc3)ccc21 [Motesanib]
Summed up: (§1)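 Five library-drug doses, separated by factors of √10, were pinned into 1536-well plates holding lung cancer cell lines after an overnight stay at 37 °C. Cells were fixed, permeabilised and Hoechst-stained in one step after 5 days without medium change, then imaged at 4×. Viability compares treated-well with vehicle-well nuclei, counted in MetaXpress, as a median across plates. Passing plates had control CV below 25% and at least one doubling.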

Compound in assay [1]: C[C@@]1(C(=O)Nc2ccc(F)nc2)CCCN1c1nc(Nc2cc(C3CC3)n[nH]2)c2cccn2n1
Summed up:
as §1

Compound in the assay “Motesanib + Trametinib”: CC1(C)CNc2cc(NC(=O)c3cccnc3NCc3ccncc3)ccc21 [Motesanib] + CC(=O)Nc1cccc(-n2c(=O)n(C3CC3)c(=O)c3c(Nc4ccc(I)cc4F)n(C)c(=O)c(C)c32)c1 [Trametinib] (partner 0.02 µM)
Put shortly:
(§2)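 Lung cancer cell lines in 1536-well plates were dosed by pin tool the day after seeding, either with one drug alone or with a fixed anchor-drug dose plus five library-drug doses (not always all listed) in √10 steps. After 5 days, cells were fixed and their nuclei stained in one step (final 0.05% Triton X-100, 1% formaldehyde, 1 ug/ml Hoechst), then counted on 4× images. Relative viability is the nuclei count in treated wells divided by that in vehicle wells. Values are medians of duplicate plates.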

Compound in assay [2]: C[C@@]1(C(=O)Nc2ccc(F)nc2)CCCN1c1nc(Nc2cc(C3CC3)n[nH]2)c2cccn2n1 + CC1(C)CCC(c2ccc(Cl)cc2)=C(CN2CCN(c3ccc(C(=O)NS(=O)(=O)c4ccc(N[C@H](CCN5CCOCC5)CSc5ccccc5)c(S(=O)(=O)C(F)(F)F)c4)cc3)CC2)C1 [Navitoclax] (partner 0.5 µM)
Summed up:
as §2

Data on 6 cell lines can be found in the supplement of paper PMC10307832.

Turning to NCI-H2405, the relative viability with Motesanib (0.01 µM) stood at 0.676; in the assay with Motesanib (0.03162 µM) it was 0.853; with Motesanib (0.1 µM), 0.975; with Motesanib (0.3162 µM), 1.06; in the assay with Motesanib (1 µM), 1.01; in assay [1] (0.04 µM) it was 0.917. The relative viability came to 0.816 in assay [1] (0.1265 µM); 0.739 in assay [1] (0.4 µM); 0.671 in assay [1] (1.265 µM); 0.53 in the assay with Motesanib + Trametinib (first compound 0.01 µM); 0.603 with Motesanib + Trametinib (first compound 0.03162 µM); 0.625 with Motesanib + Trametinib (first compound 0.1 µM). The relative viability in the assay with Motesanib + Trametinib (first compound 0.3162 µM) came to 0.684; in the assay with Motesanib + Trametinib (first compound 1 µM), 0.704; in assay [2] (first compound 0.04 µM), 0.813; in assay [2] (first compound 0.1265 µM), 0.635; in assay [2] (first compound 0.4 µM), 0.584; in assay [2] (first compound 1.265 µM), 0.597.
With NCI-H322M, the relative viability in the assay with Motesanib (0.01 µM) is 1.04; in the assay with Motesanib (0.03162 µM), 0.993; in the assay with Motesanib (0.1 µM) it was 0.988; with Motesanib (0.3162 µM), 0.946; with Motesanib (1 µM), 0.954; in assay [1] (0.04 µM), 0.853. The relative viability in assay [1] (0.1265 µM) was found to be 0.602; in assay [1] (0.4 µM) it was 0.644; in assay [1] (1.265 µM), 0.728; with Motesanib + Trametinib (first compound 0.01 µM), 0.471; with Motesanib + Trametinib (first compound 0.03162 µM) it was 0.558; with Motesanib + Trametinib (first compound 0.1 µM), 0.554. Also, the relative viability with Motesanib + Trametinib (first compound 0.3162 µM) was determined as 0.527; in the assay with Motesanib + Trametinib (first compound 1 µM) it was 0.545; in assay [2] (first compound 0.04 µM), 1.27; in assay [2] (first compound 0.1265 µM), 1; in assay [2] (first compound 0.4 µM), 1.07; in assay [2] (first compound 1.265 µM), 1.19.
Turning to NCI-H2170, the relative viability was determined as 0.928 in the assay with Motesanib (0.01 µM); 0.948 with Motesanib (0.03162 µM); 0.939 with Motesanib (0.1 µM); 1.01 with Motesanib (0.3162 µM); 1.02 in the assay with Motesanib (1 µM); 0.945 in assay [1] (0.04 µM). The relative viability came out at 0.994 in assay [1] (0.1265 µM); 0.958 in assay [1] (0.4 µM); 0.976 in assay [1] (1.265 µM); 0.861 in the assay with Motesanib + Trametinib (first compound 0.01 µM); 0.872 with Motesanib + Trametinib (first compound 0.03162 µM); 0.91 with Motesanib + Trametinib (first compound 0.1 µM). Also, the relative viability came out at 0.909 with Motesanib + Trametinib (first compound 0.3162 µM); 0.979 in the assay with Motesanib + Trametinib (first compound 1 µM); 0.514 in assay [2] (first compound 0.04 µM); 0.652 in assay [2] (first compound 0.1265 µM); 0.518 in assay [2] (first compound 0.4 µM); 0.652 in assay [2] (first compound 1.265 µM).
For the cell line NCI-H1395, the relative viability with Motesanib (0.01 µM) was 0.814; with Motesanib (0.03162 µM), 0.84; in the assay with Motesanib (0.1 µM), 0.95; in the assay with Motesanib (0.3162 µM), 0.866; with Motesanib (1 µM) it was 0.924; in assay [1] (0.04 µM) it was 0.916. Moreover, the relative viability in assay [1] (0.1265 µM) is 0.825; in assay [1] (0.4 µM) it was 0.922; in assay [1] (1.265 µM) it was 0.755; with Motesanib + Trametinib (first compound 0.01 µM) it was 0.98; with Motesanib + Trametinib (first compound 0.03162 µM) it was 0.977; in the assay with Motesanib + Trametinib (first compound 0.1 µM), 1.06. The relative viability was 1.04 in the assay with Motesanib + Trametinib (first compound 0.3162 µM); 1.19 with Motesanib + Trametinib (first compound 1 µM); 1.33 in assay [2] (first compound 0.04 µM); 0.983 in assay [2] (first compound 0.1265 µM); 1.03 in assay [2] (first compound 0.4 µM); 1.24 in assay [2] (first compound 1.265 µM).
For the cell line NCI-H838, the relative viability with Motesanib (0.01 µM) was found to be 1.04; in the assay with Motesanib (0.03162 µM), 0.962; with Motesanib (0.1 µM) it was 0.985; with Motesanib (0.3162 µM), 1.02; with Motesanib (1 µM) it was 0.932; in assay [1] (0.04 µM), 0.942. Moreover, the relative viability in assay [1] (0.1265 µM) was 0.76; in assay [1] (0.4 µM) it was 0.693; in assay [1] (1.265 µM) it was 0.736; with Motesanib + Trametinib (first compound 0.01 µM) it was 0.494; with Motesanib + Trametinib (first compound 0.03162 µM) it was 0.568; with Motesanib + Trametinib (first compound 0.1 µM), 0.507. The relative viability in the assay with Motesanib + Trametinib (first compound 0.3162 µM) amounted to 0.544; in the assay with Motesanib + Trametinib (first compound 1 µM), 0.529; in assay [2] (first compound 0.04 µM) it was 1.21; in assay [2] (first compound 0.1265 µM), 1.01; in assay [2] (first compound 0.4 µM) it was 0.948; in assay [2] (first compound 1.265 µM), 1.1.
For CAL-12T, the relative viability in the assay with Motesanib (0.01 µM) worked out at 0.951; with Motesanib (0.03162 µM), 0.975; with Motesanib (0.1 µM), 0.967; in the assay with Motesanib (0.3162 µM) it was 1.05; with Motesanib (1 µM) it was 0.965; in assay [1] (0.04 µM), 1.03. For the same cell line, the relative viability in assay [1] (0.1265 µM) amounted to 0.863; in assay [1] (0.4 µM) it was 0.884; in assay [1] (1.265 µM), 0.664; in the assay with Motesanib + Trametinib (first compound 0.01 µM) it was 0.324; in the assay with Motesanib + Trametinib (first compound 0.03162 µM) it was 0.316; in the assay with Motesanib + Trametinib (first compound 0.1 µM), 0.33. Moreover, the relative viability is 0.402 in the assay with Motesanib + Trametinib (first compound 0.3162 µM); 0.419 with Motesanib + Trametinib (first compound 1 µM); 1.18 in assay [2] (first compound 0.04 µM); 1.16 in assay [2] (first compound 0.1265 µM); 1.14 in assay [2] (first compound 0.4 µM); 1.06 in assay [2] (first compound 1.265 µM).
